Laboratory results taken from patent US20240285634A1, “COMPOUND AND METHOD FOR TREATING CHEMOTHERAPY-ASSOCIATED GASTROINTESTINAL SIDE EFFECTS” (ONQUALITY PHARMACEUTICALS CHINA LTD., priority 2021, published 2024).

Test system: Chemotherapeutic agent-caused constipation models of Balb/c mice
Assay: Relieving effect on constipation caused by a chemotherapeutic agent (Examples 202-364)
Format: in vivo
Text: Construction of mouse animal models: Chemotherapeutic agent-caused constipation models of Balb/c mice were constructed according to the administration mode and frequency of the chemotherapeutic agent as shown in Table 4. […] Thus, chemotherapeutic agent-caused constipation models of mice are very good models to mimic constipation caused by the chemotherapeutic agent.
Balb/c mice were fed for 1 week, and then divided into groups. The experiment was divided into a control group, a chemotherapeutic agent group, and a group of the compound as shown in Formula I, each of which comprised 10 mice, to perform the administration experiment, for which the administration dosage, mode, time and frequency were shown in Table 4. The control group: being injected or intragastrically administered with the same solvent as that used in the group of the compound as shown in Formula I (the administration mode and time were shown in Table 4), and then being injected or intragastrically administered with the same solvent as that used in the chemotherapeutic agent group (the administration mode was shown in Table 4); the chemotherapeutic agent group: being injected or intragastrically administered with the same solvent as that used in the group of the compound as shown in Formula I (the administration mode and time was shown in Table 4), and then being injected or intragastrically administered with the chemotherapeutic agent (the type, administration mode and dosage were shown in Table 4); the group of the compound as shown in Formula I: being injected or intragastrically administered with the compound as shown in Formula I (the administration mode and time was shown in Table 4), and then being administered with the chemotherapeutic agent (the administration mode and dosage were shown in Table 4).
The feces reduction rate was calculated with reference to the method of Ji Eun Kim (Lab Anim Res. 2016 December; 32(4): 231-240.). Feces reduction rate (%)=(the control group−the chemotherapeutic agent group or the group of the compound as shown in Formula I)/the control group*100%
It is regarded as effective remission when the feces reduction rate of mice in the group of the compound as shown in Formula I is reduced compared with that in the chemotherapeutic agent group.
The feces amount of mice within 3 hours was observed and recorded every day. At the end of the experiment, the number of mice in the group of the compound as shown in Formula I whose feces reduction rate was lower than that of mice in the chemotherapeutic agent group was recorded. Table 4 lists various animal experiment combinations of chemotherapeutic agents and the compound as shown in Formula I, as well as the corresponding experimental results.

CN1CCN(c2ccc(Nc3ncc4cc5n(c4n3)C3(CCCCC3)CNC5=O)nc2)CC1 [Compound I, Trilaciclib]
Relative remission rate (%) (Example 203, Fluorouracil (5-Fu) intraperitoneal injection 175 mg/kg single, compound intravenous injection 100 mg/kg, frequency 8, 1 h before chemotherapeutic agent, cycle 10 days): 30% | Relative remission rate (%) (Example 204, Fluorouracil (5-Fu) intraperitoneal injection 175 mg/kg single, compound intravenous injection 100 mg/kg, frequency 8, 2 h before chemotherapeutic agent, cycle 10 days): 40% | Relative remission rate (%) (Example 205, Fluorouracil (5-Fu) intraperitoneal injection 175 mg/kg single, compound intravenous injection 100 mg/kg, frequency 8, 3 h before chemotherapeutic agent, cycle 10 days): 40% | Relative remission rate (%) (Example 206, Fluorouracil (5-Fu) intraperitoneal injection 175 mg/kg single, compound intravenous injection 100 mg/kg, frequency 8, 4 h before chemotherapeutic agent, cycle 10 days): 30% | Relative remission rate (%) (Example 207, Fluorouracil (5-Fu) intraperitoneal injection 175 mg/kg single, compound intravenous injection 100 mg/kg, frequency 8, 5 h before chemotherapeutic agent, cycle 10 days): 20% | Relative remission rate (%) (Example 208, Fluorouracil (5-Fu) intraperitoneal injection 175 mg/kg single, compound intravenous injection 100 mg/kg, frequency 8, 6 h before chemotherapeutic agent, cycle 10 days): 50% | Relative remission rate (%) (Example 209, Fluorouracil (5-Fu) intraperitoneal injection 175 mg/kg single, compound intravenous injection 100 mg/kg, frequency 8, 7 h before chemotherapeutic agent, cycle 10 days): 50% | Relative remission rate (%) (Example 210, Fluorouracil (5-Fu) intraperitoneal injection 175 mg/kg single, compound intravenous injection 100 mg/kg, frequency 8, 8 h before chemotherapeutic agent, cycle 10 days): 40% | Relative remission rate (%) (Example 211, Fluorouracil (5-Fu) intraperitoneal injection 175 mg/kg single, compound intravenous injection 100 mg/kg, frequency 8, 9 h before chemotherapeutic agent, cycle 10 days): 40% | Relative remission rate (%) (Example 212, Fluorouracil (5-Fu) intraperitoneal injection 175 mg/kg single, compound intravenous injection 100 mg/kg, frequency 8, 10 h before chemotherapeutic agent, cycle 10 days): 30% | Relative remission rate (%) (Example 213, Fluorouracil (5-Fu) intraperitoneal injection 175 mg/kg single, compound intravenous injection 100 mg/kg, frequency 8, 11 h before chemotherapeutic agent, cycle 10 days): 50% | Relative remission rate (%) (Example 214, Fluorouracil (5-Fu) intraperitoneal injection 175 mg/kg single, compound intravenous injection 12.5 mg/kg, frequency 8, 12 h before chemotherapeutic agent, cycle 10 days): 20% | Relative remission rate (%) (Example 215, Fluorouracil (5-Fu) intraperitoneal injection 175 mg/kg single, compound intravenous injection 25 mg/kg, frequency 8, 12 h before chemotherapeutic agent, cycle 10 days): 30% | Relative remission rate (%) (Example 216, Fluorouracil (5-Fu) intraperitoneal injection 175 mg/kg single, compound intravenous injection 50 mg/kg, frequency 8, 12 h before chemotherapeutic agent, cycle 10 days): 30% | Relative remission rate (%) (Example 217, Fluorouracil (5-Fu) intraperitoneal injection 175 mg/kg single, compound intravenous injection 100 mg/kg, frequency 8, 12 h before chemotherapeutic agent, cycle 10 days): 40% | Relative remission rate (%) (Example 218, Fluorouracil (5-Fu) intraperitoneal injection 175 mg/kg single, compound intravenous injection 150 mg/kg, frequency 8, 12 h before chemotherapeutic agent, cycle 10 days): 60% | Relative remission rate (%) (Example 219, Fluorouracil (5-Fu) intraperitoneal injection 175 mg/kg single, compound intravenous injection 240 mg/kg, frequency 8, 12 h before chemotherapeutic agent, cycle 10 days): 60% | Relative remission rate (%) (Example 220, Fluorouracil (5-Fu) intraperitoneal injection 175 mg/kg single, compound intravenous injection 100 mg/kg, frequency 8, 13 h before chemotherapeutic agent, cycle 10 days): 40% | Relative remission rate (%) (Example 221, Fluorouracil (5-Fu) intraperitoneal injection 175 mg/kg single, compound intravenous injection 100 mg/kg, frequency 8, 14 h before chemotherapeutic agent, cycle 10 days): 40% | Relative remission rate (%) (Example 222, Fluorouracil (5-Fu) intraperitoneal injection 175 mg/kg single, compound intravenous injection 100 mg/kg, frequency 8, 16 h before chemotherapeutic agent, cycle 10 days): 50% | Relative remission rate (%) (Example 223, Fluorouracil (5-Fu) intraperitoneal injection 175 mg/kg single, compound intravenous injection 100 mg/kg, frequency 8, 18 h before chemotherapeutic agent, cycle 10 days): 60% | Relative remission rate (%) (Example 224, Fluorouracil (5-Fu) intraperitoneal injection 175 mg/kg single, compound intravenous injection 100 mg/kg, frequency 8, 20 h before chemotherapeutic agent, cycle 10 days): 60% | Relative remission rate (%) (Example 225, Fluorouracil (5-Fu) intraperitoneal injection 175 mg/kg single, compound intravenous injection 100 mg/kg, frequency 8, 22 h before chemotherapeutic agent, cycle 10 days): 30% | Relative remission rate (%) (Example 226, Fluorouracil (5-Fu) intraperitoneal injection 175 mg/kg single, compound intravenous injection 100 mg/kg, frequency 8, 24 h before chemotherapeutic agent, cycle 10 days): 30% | Relative remission rate (%) (Example 227, Fluorouracil (5-Fu) intraperitoneal injection 175 mg/kg single, compound intravenous injection 100 mg/kg, frequency 8, 48 h before chemotherapeutic agent, cycle 10 days): 0% | Relative remission rate (%) (Example 228, Fluorouracil (5-Fu) intravenous injection 250 mg/kg single, compound intraperitoneal injection 100 mg/kg single, 0.5 h before chemotherapeutic agent, cycle 10 days): 30% | Relative remission rate (%) (Example 229, Fluorouracil (5-Fu) intravenous injection 250 mg/kg single, compound intraperitoneal injection 100 mg/kg single, 1 h before chemotherapeutic agent, cycle 10 days): 40% | Relative remission rate (%) (Example 230, Fluorouracil (5-Fu) intravenous injection 250 mg/kg single, compound intraperitoneal injection 100 mg/kg single, 2 h before chemotherapeutic agent, cycle 10 days): 40% | Relative remission rate (%) (Example 231, Fluorouracil (5-Fu) intravenous injection 250 mg/kg single, compound intraperitoneal injection 100 mg/kg single, 4 h before chemotherapeutic agent, cycle 10 days): 60% | Relative remission rate (%) (Example 232, Fluorouracil (5-Fu) intravenous injection 250 mg/kg single, compound intraperitoneal injection 100 mg/kg single, 6 h before chemotherapeutic agent, cycle 10 days): 60% | Relative remission rate (%) (Example 233, Fluorouracil (5-Fu) intravenous injection 250 mg/kg single, compound intraperitoneal injection 100 mg/kg single, 8 h before chemotherapeutic agent, cycle 10 days): 50% | Relative remission rate (%) (Example 234, Fluorouracil (5-Fu) intravenous injection 250 mg/kg single, compound intraperitoneal injection 100 mg/kg single, 10 h before chemotherapeutic agent, cycle 10 days): 50% | Relative remission rate (%) (Example 235, Fluorouracil (5-Fu) intravenous injection 250 mg/kg single, compound intraperitoneal injection 100 mg/kg single, 12 h before chemotherapeutic agent, cycle 10 days): 70% | Relative remission rate (%) (Example 236, Fluorouracil (5-Fu) intravenous injection 250 mg/kg single, compound intraperitoneal injection 100 mg/kg single, 14 h before chemotherapeutic agent, cycle 10 days): 40% | Relative remission rate (%) (Example 237, Fluorouracil (5-Fu) intravenous injection 250 mg/kg single, compound intraperitoneal injection 100 mg/kg single, 16 h before chemotherapeutic agent, cycle 10 days): 40% | Relative remission rate (%) (Example 238, Fluorouracil (5-Fu) intravenous injection 250 mg/kg single, compound intraperitoneal injection 100 mg/kg single, 18 h before chemotherapeutic agent, cycle 10 days): 50% | Relative remission rate (%) (Example 239, Fluorouracil (5-Fu) intravenous injection 250 mg/kg single, compound intraperitoneal injection 100 mg/kg single, 20 h before chemotherapeutic agent, cycle 10 days): 50% | Relative remission rate (%) (Example 240, Fluorouracil (5-Fu) intravenous injection 250 mg/kg single, compound intraperitoneal injection 100 mg/kg single, 24 h before chemotherapeutic agent, cycle 10 days): 50% | Relative remission rate (%) (Example 287, Irinotecan (CPT-11) intraperitoneal injection 260 mg/kg single, compound intravenous injection 150 mg/kg single, 1 h before chemotherapeutic agent, cycle 8 days): 40% | Relative remission rate (%) (Example 288, Irinotecan (CPT-11) intraperitoneal injection 260 mg/kg single, compound intravenous injection 150 mg/kg single, 2 h before chemotherapeutic agent, cycle 8 days): 50% | Relative remission rate (%) (Example 289, Irinotecan (CPT-11) intraperitoneal injection 260 mg/kg single, compound intravenous injection 150 mg/kg single, 3 h before chemotherapeutic agent, cycle 8 days): 50% | Relative remission rate (%) (Example 290, Irinotecan (CPT-11) intraperitoneal injection 260 mg/kg single, compound intravenous injection 150 mg/kg single, 4 h before chemotherapeutic agent, cycle 8 days): 40% | Relative remission rate (%) (Example 291, Irinotecan (CPT-11) intraperitoneal injection 260 mg/kg single, compound intravenous injection 150 mg/kg single, 5 h before chemotherapeutic agent, cycle 8 days): 30% | Relative remission rate (%) (Example 292, Irinotecan (CPT-11) intraperitoneal injection 260 mg/kg single, compound intravenous injection 150 mg/kg single, 6 h before chemotherapeutic agent, cycle 8 days): 40% | Relative remission rate (%) (Example 293, Irinotecan (CPT-11) intraperitoneal injection 260 mg/kg single, compound intravenous injection 150 mg/kg single, 7 h before chemotherapeutic agent, cycle 8 days): 50% | Relative remission rate (%) (Example 294, Irinotecan (CPT-11) intraperitoneal injection 260 mg/kg single, compound intravenous injection 150 mg/kg single, 8 h before chemotherapeutic agent, cycle 8 days): 60% | Relative remission rate (%) (Example 295, Irinotecan (CPT-11) intraperitoneal injection 260 mg/kg single, compound intravenous injection 150 mg/kg single, 9 h before chemotherapeutic agent, cycle 8 days): 70%
